ChEMBL document CHEMBL1126318, “Discovery of a potent substance P antagonist: recognition of the key molecular determinant” (J Med Chem, 1992)

Biological target: Substance-P receptor (Homo sapiens, UniProt P25103)
Assay: In vitro binding affinity for the Tachykinin receptor 1 in human IM-9 cell using [125I]BH-SP of the compound.
Type: cell-based

Sequence of Substance-P receptor (P25103 whole entry): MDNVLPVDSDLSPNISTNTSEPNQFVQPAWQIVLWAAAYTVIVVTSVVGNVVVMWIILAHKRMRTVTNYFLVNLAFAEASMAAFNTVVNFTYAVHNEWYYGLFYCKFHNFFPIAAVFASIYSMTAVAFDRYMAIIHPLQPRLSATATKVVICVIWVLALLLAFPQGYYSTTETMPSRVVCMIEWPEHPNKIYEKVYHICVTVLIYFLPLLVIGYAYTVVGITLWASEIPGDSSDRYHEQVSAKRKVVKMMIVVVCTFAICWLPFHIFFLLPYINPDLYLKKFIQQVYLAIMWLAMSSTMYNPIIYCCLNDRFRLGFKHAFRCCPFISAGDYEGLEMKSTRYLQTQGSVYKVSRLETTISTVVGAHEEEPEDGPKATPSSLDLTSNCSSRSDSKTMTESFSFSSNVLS

**Q.** With `COc1ccccc1CN[C@H]1CCCN[C@H]1C(c1ccccc1)c1ccccc1` (racemic) as the compound, how does the Ki read?
**A.** The Ki was 49 nM.
